{
  "source": "patent US5985824A",
  "about": "“Methods and compositions for treating cystic fibrosis” (priority 1997, dated 1999)",
  "key": {"ΔF508-CFTR (IBE-1 cells)": {"tested_on": "ΔF508-CFTR (IBE-1 cells)", "test": "SPQ halide efflux assay, cAMP-stimulated Cl- channel activity, IBE-1 cells", "format": "cell-based, human", "conditions": "DSG 5 to 50 μg/ml, 72 h", "description": "(§1) The cAMP-dependent CFTR Cl^- channel activity was assessed using the halide-sensitive fluorophore 6-methoxy-N-(3-sulfopropyl)-quinolinium (SPQ) essentially as described previously (Cheng et al., (1995), supra.; Marshall et al., supra.). Briefly, the cells were treated with different amounts of DSG for the times specified. At the end of the treatment period, the cells were loaded with SPQ by hypotonic shock for 4 min at room temperature. SPQ fluorescence initially was quenched by incubating the cells for up to 30 min in a NaI buffer (135 mM NaI, 2.4 mM K2 HPO4, 0.6 mM KH2 PO4, 1 mM MgSO4, 1 mM CaSO4, 10 mM dextrose, and 10 mM N-2 hydroxyethylpiperazine-N'2-ethanesulfonic acid, pH 7.4). After measuring the baseline fluorescence (Fo) for 2 min., the NaI solution was replaced with one containing 135 mM NaNO3, and fluorescence was measured for another 16 min. […]\n(§2) An increase in halide permeability is reflected by a more rapid increase in SPQ fluorescence. […] Differences in absolute levels reflect quantitative differences between groups in SPQ loading, size of cells, or number of cells studied. The data are presented as means± SE of fluorescence at time t (Ft) minus the baseline fluorescence (Fo, the average fluorescence measured in the presence of I^- for 2 min. before ion substitution) and are representative of results obtained under each condition. […]"}, "[1]": {"tested_on": "ΔF508-CFTR (C127-ΔF508-low cells)", "test": "immunoprecipitation analysis for mature band C-CFTR in C127-ΔF508-low cells", "format": "cell-based", "conditions": "DSG 10 to 100 μg/ml, 48 to 72 h", "from_the_text": "Detailed procedures for preparing cell lysates, immunoprecipitation, phosphorylation of CFTR using protein kinase A and [γ^32 P]ATP, and polyacrylamide gel electrophoresis have all been described previously (Cheng et al., (1995), supra.; Marshall et al., supra.).\nC127-ΔF508-low (mouse mammary tumor) is a recombinant cell line stably transfected with the cDNA encoding the mutant ΔF508-CFTR (Cheng et al. (1995), supra.; Marshall et al. (1994), J. Biol. Chem. 269: 2987-2995). […] C127-mock is a cell line that has been stably transfected with the backbone of the expression vector used to generate C127-ΔF508-low (Cheng et al. (1995), supra.). LLCPK1 -ΔF508 (pig kidney epithelial) is a recombinant cell line stably expressing low levels of the mutant ΔF508-CFTR protein (Marshall et al., supra.). The details of the generation, characterization and routine propagation of these cell lines has been described (Cheng et al. (1995), supra.; Marshall et al., supra.).\nTo test whether treatment with DSG may interfere with the ability of hsp70 to retain ΔF508-CFTR in the ER, recombinant C127 cells expressing ΔF508-CFTR were seeded onto glass coverslips and were exposed to DSG (10 to 100 μg/ml) (Bristol Myers Squibb, Seattle, Wa.) for 48 to 72 h. Analysis for evidence of mature band C-CFTR (Cheng et al. (1990), supra.) which would be indicative of processing of ΔF508-CFTR in the Golgi was performed. […]"}, "[2]": {"tested_on": "ΔF508-CFTR (C127-ΔF508-low cells)", "test": "SPQ halide efflux assay, cAMP-stimulated Cl- channel activity, C127-ΔF508-low cells", "format": "cell-based", "conditions": "FIG. 1E"}, "hsc70 (hsp70)": {"target": "hsc70 (hsp70)", "conditions": "cited from earlier work"}, "immune responses": {"tested_on": "immune responses", "conditions": "T-cell dependent assays and models; cited from earlier work"}, "[3]": {"tested_on": "ΔF508-CFTR (LLCPK1-ΔF508 cells)", "test": "SPQ assay, cAMP-stimulated Cl- channel activity, LLCPK1-ΔF508 cells", "format": "cell-based", "description": "as §1, §2"}, "hsp90": {"target": "hsp90", "conditions": "read-out: kds, DSG-hsp complexes; cited from earlier work"}},
  "note": "“Also recorded” adds a separate entry of the source. Where two headings read alike, the source gives them in different places.",
  "data": [
    {"smiles": "N=C(N)NCCCCCCC(=O)NC(O)C(=O)NCCCCNCCCN", "note": "(stereo not shown) [DSG, deoxyspergualin]", "values": [
      {"measurement": "cAMP-stimulated Cl- channel activity, in words", "setting": "ΔF508-CFTR (IBE-1 cells)", "value": "concentration-dependent, with higher concentrations of DSG giving rise to greater transport rates and higher numbers of positively-responding cells; also recorded: comparable to that observed when these cells were cultured at a reduced temperature"},
      {"measurement": "cells exhibiting measurable cAMP-stimulated Cl- channel activity", "setting": "ΔF508-CFTR (IBE-1 cells); FIG. 9B", "value": "up to 20%"},
      {"measurement": "mature band C form of CFTR", "setting": "[1]", "value": "the presence of any mature band C-form of CFTR could not be demonstrated; also recorded: no discernible evidence of the mature band C form of CFTR"},
      {"measurement": "percentage of mature CFTR produced from CFTR-ΔF508 upon exposure to reduced temperatures", "setting": "[2]", "value": "increases upon exposure to reduced temperatures"},
      {"measurement": "Kd", "setting": "hsc70 (hsp70); hsc70, Nadeau et al. (1994), read-out: Kd value for DSG binding to hsc70", "value": 4, "unit": "µM"},
      {"measurement": "Kd", "setting": "hsc70 (hsp70); hsp70, read-out: kds, DSG-hsp complexes", "value": "4 to 5", "unit": "µM"},
      {"measurement": "affinity for hsps, in words", "setting": "hsc70 (hsp70); hsps, Nadler et al. (1992), Nadeau et al. (1994)", "value": "Pure human hsp90 and hsp70 have equivalent affinities for DSG"},
      {"measurement": "immunosuppressive activity, in words", "setting": "immune responses", "value": "potent immunosuppressive activity"},
      {"measurement": "cAMP-stimulated Cl- channel activity, in words", "setting": "[3]", "value": "marginal; also recorded: Data similar to those described for C127-ΔF508-low cells"},
      {"measurement": "Kd", "setting": "hsp90", "value": "4 to 5", "unit": "µM"}
    ]}
  ]
}
